Data taken from patent publication US8067454B2, “Thio-substituted Anthra [1, 2-d] imidazole- 6, 11-dione derivatives, preparation method and application thereof” (National Defense Medical Center, priority 2010, dated 2011).

How the values were obtained:
CCRF-CEM = assay: NCI 60-cell drug screen, Leukemia CCRF-CEM; type: cell-based, human; details: 1.00E−5 Molar
HL-60(TB) = assay: NCI 60-cell drug screen, Leukemia HL-60(TB); type: cell-based, human; details: 1.00E−5 Molar
K-562 = assay: NCI 60-cell drug screen, Leukemia K-562; type: cell-based, human; details: 1.00E−5 Molar
SR = assay: NCI 60-cell drug screen, Leukemia SR; type: cell-based, human; details: 1.00E−5 Molar
NCI-H226 = assay: NCI 60-cell drug screen, Non-Small Cell Lung Cancer NCI-H226; type: cell-based, human; details: 1.00E−5 Molar
NCI-H23 = assay: NCI 60-cell drug screen, Non-Small Cell Lung Cancer NCI-H23; type: cell-based, human; details: 1.00E−5 Molar
NCI-H322M = assay: NCI 60-cell drug screen, Non-Small Cell Lung Cancer NCI-H322M; type: cell-based, human; details: 1.00E−5 Molar
NCI-H460 = assay: NCI 60-cell drug screen, Non-Small Cell Lung Cancer NCI-H460; type: cell-based, human; details: 1.00E−5 Molar
NCI-H522 = assay: NCI 60-cell drug screen, Non-Small Cell Lung Cancer NCI-H522; type: cell-based, human; details: 1.00E−5 Molar
COLO 205 = assay: NCI 60-cell drug screen, Colon Cancer COLO 205; type: cell-based, human; details: 1.00E−5 Molar
HCC-2998 = assay: NCI 60-cell drug screen, Colon Cancer HCC-2998; type: cell-based, human; details: 1.00E−5 Molar
HCT-116 = assay: NCI 60-cell drug screen, Colon Cancer HCT-116; type: cell-based, human; details: 1.00E−5 Molar
HCT-15 = assay: NCI 60-cell drug screen, Colon Cancer HCT-15; type: cell-based, human; details: 1.00E−5 Molar
KM12 = assay: NCI 60-cell drug screen, Colon Cancer KM12; type: cell-based, human; details: 1.00E−5 Molar
SW-620 = assay: NCI 60-cell drug screen, Colon Cancer SW-620; type: cell-based, human; details: 1.00E−5 Molar
SNB-19 = assay: NCI 60-cell drug screen, CNS Cancer SNB-19; type: cell-based, human; details: 1.00E−5 Molar
U251 = assay: NCI 60-cell drug screen, CNS Cancer U251; type: cell-based, human; details: 1.00E−5 Molar
LOX IMVI = assay: NCI 60-cell drug screen, Melanoma LOX IMVI; type: cell-based, human; details: 1.00E−5 Molar
MALME-3M = assay: NCI 60-cell drug screen, Melanoma MALME-3M; type: cell-based, human; details: 1.00E−5 Molar
M14 = assay: NCI 60-cell drug screen, Melanoma M14; type: cell-based, human; details: 1.00E−5 Molar
SK-MEL-2 = assay: NCI 60-cell drug screen, Melanoma SK-MEL-2; type: cell-based, human; details: 1.00E−5 Molar
SK-MEL-28 = assay: NCI 60-cell drug screen, Melanoma SK-MEL-28; type: cell-based, human; details: 1.00E−5 Molar
SK-MEL-5 = assay: NCI 60-cell drug screen, Melanoma SK-MEL-5; type: cell-based, human; details: 1.00E−5 Molar
UACC-257 = assay: NCI 60-cell drug screen, Melanoma UACC-257; type: cell-based, human; details: 1.00E−5 Molar
UACC-62 = assay: NCI 60-cell drug screen, Melanoma UACC-62; type: cell-based, human; details: 1.00E−5 Molar
IGROV1 = assay: NCI 60-cell drug screen, Ovarian Cancer IGROV1; type: cell-based, human; details: 1.00E−5 Molar
OVCAR-4 = assay: NCI 60-cell drug screen, Ovarian Cancer OVCAR-4; type: cell-based, human; details: 1.00E−5 Molar
OVCAR-8 = assay: NCI 60-cell drug screen, Ovarian Cancer OVCAR-8; type: cell-based, human; details: 1.00E−5 Molar
NCI/ADR-RES = assay: NCI 60-cell drug screen, Ovarian Cancer NCI/ADR-RES; type: cell-based, human; details: 1.00E−5 Molar
Procedure: In brief, cellular protein levels were determined after 48 hours of drug exposure by sulforhodamine B colorimetry. Through the use of a time 0 cell control, the cell growth can be determined for each cell line thus allowing calculations of the 50% growth inhibitory concentration (GI50), the total growth inhibition (TGI), and the 50% lethal concentration (LC50). Comparison to plates not exposed to drug permits determination of concentration and times of exposure conferring 50% net growth inhibition (GI50), TGI, and 50% cell kill (LC50).
From the data analysis it follows that approximately 95% of the actives (potent anticancer drugs) from the 60 cell line screen can be identified. By these criteria, 6 compounds (each with its certification number, refer to Table 2) of the invention were reported that having anticancer activity.
The screening system in United State National Cancer Institute (NCI) consists of 60 kinds of different human cancer cells, which can be used to assay the growth-inhibiting ability or cell toxicity of a compound against various cancer and tumor at a certain concentration.
NCI had selected 6 compounds f1-0, f1-1, f3-1, f1-11, f1-2 and f1-15 as test compounds (Table 2). Among these compounds, compound f1-1 was effective against renal cancer cell strain CAKI-1, and could achieve an inhibition effect on the growth of said cancer cell up to −8.01. Compound f1-11 could achieve inhibiting effects against leukemia cell line CCRF-CEM and RPMI-8226, up to −15.39 and −60.17, respectively. Compound f1-2 was effective against central nervous system cancer cell line SNB-75, and could achieve an effect of inhibiting said cancer cell growth up to −9.55. Compound f1-15 was effective against leukemia (blood cancer) cell line K-562, MOLT-4, and RPMI-8226, and could achieve effects of inhibiting said cancer cells growth up to −31.59, −2.90 and −13.69, respectively. Further, compound f1-15 was effective also against renal cancer cell line CAKI-1, and could achieve an effect of inhibiting said cancer cell growth up to −14.89.

786-0 = assay: NCI 60-cell drug screen, Renal Cancer 786-0; type: cell-based, human; details: 1.00E−5 Molar
A498 = assay: NCI 60-cell drug screen, Renal Cancer A498; type: cell-based, human; details: 1.00E−5 Molar
RXF 393 = assay: NCI 60-cell drug screen, Renal Cancer RXF 393; type: cell-based, human; details: 1.00E−5 Molar
SN12C = assay: NCI 60-cell drug screen, Renal Cancer SN12C; type: cell-based, human; details: 1.00E−5 Molar
TK-10 = assay: NCI 60-cell drug screen, Renal Cancer TK-10; type: cell-based, human; details: 1.00E−5 Molar
UO-31 = assay: NCI 60-cell drug screen, Renal Cancer UO-31; type: cell-based, human; details: 1.00E−5 Molar
PC-3 = assay: NCI 60-cell drug screen, Prostate Cancer PC-3; type: cell-based, human; details: 1.00E−5 Molar
MCF7 = assay: NCI 60-cell drug screen, Breast Cancer MCF7; type: cell-based, human; details: 1.00E−5 Molar
MDA-MB-231/ATCC = assay: NCI 60-cell drug screen, Breast Cancer MDA-MB-231/ATCC; type: cell-based, human; details: 1.00E−5 Molar
T-47D = assay: NCI 60-cell drug screen, Breast Cancer T-47D; type: cell-based, human; details: 1.00E−5 Molar
SVG p12 = assay: MTT assay, SVG p12 normal cell; details: concentration 10 μM, normal cell

## CN(C)CCCSc1nc2ccc3c(c2[nH]1)C(=O)c1ccccc1C3=O [f1-15, 2-(3-(dimethylamino)propylthio)-1H-anthra[1,2-d]imidazole-6,11-dione]
CCRF-CEM
  Growth Percent, CCRF-CEM: 8.49%
HL-60(TB)
  Growth Percent, HL-60(TB): 12.74%
K-562
  Growth Percent, K-562: −31.59%
SR
  Growth Percent, SR: 3.09%
NCI-H226
  Growth Percent, NCI-H226: 74.10%
NCI-H23
  Growth Percent, NCI-H23: 53.83%
NCI-H322M
  Growth Percent, NCI-H322M: 70.75%
NCI-H460
  Growth Percent, NCI-H460: 23.20%
NCI-H522
  Growth Percent, NCI-H522: 69.28%
COLO 205
  Growth Percent, COLO 205: 62.01%
HCC-2998
  Growth Percent, HCC-2998: 72.67%
HCT-116
  Growth Percent, HCT-116: 27.58%
HCT-15
  Growth Percent, HCT-15: 36.27%
KM12
  Growth Percent, KM12: 20.36%
SW-620
  Growth Percent, SW-620: 26.35%
SNB-19
  Growth Percent, SNB-19: 79.67%
U251
  Growth Percent, U251: 74.11%
LOX IMVI
  Growth Percent, LOX IMVI: 28.57%
MALME-3M
  Growth Percent, MALME-3M: 88.23%
M14
  Growth Percent, M14: 77.32%
SK-MEL-2
  Growth Percent, SK-MEL-2: 80.03%
SK-MEL-28
  Growth Percent, SK-MEL-28: 102.07%
SK-MEL-5
  Growth Percent, SK-MEL-5: 62.55%
UACC-257
  Growth Percent, UACC-257: 114.50%
UACC-62
  Growth Percent, UACC-62: 75.39%
IGROV1
  Growth Percent, IGROV1: 30.89%
OVCAR-4
  Growth Percent, OVCAR-4: 29.72%
OVCAR-8
  Growth Percent, OVCAR-8: 61.89%
NCI/ADR-RES
  Growth Percent, NCI/ADR-RES: 54.32%
786-0
  Growth Percent, 786-0: 77.63%
A498
  Growth Percent, A498: 76.16%
RXF 393
  Growth Percent, RXF 393: 38.40%
SN12C
  Growth Percent, SN12C: 37.66%
TK-10
  Growth Percent, TK-10: 31.68%
UO-31
  Growth Percent, UO-31: 25.50%
PC-3
  Growth Percent, PC-3: 36.71%
MCF7
  Growth Percent, MCF7: 16.92%
MDA-MB-231/ATCC
  Growth Percent, MDA-MB-231/ATCC: 56.24%
T-47D
  Growth Percent, T-47D: 45.78%
SVG p12
  Cell survival rate (%) SVG p12: 11 ± 6%

## O=C1c2ccccc2C(=O)c2c1ccc1nc3n(c21)CCS3 [f3-1, 2-(2-N-ethylthio)-1H-anthra[1,2-d]imidazole-6,11-dione]
CCRF-CEM
  Growth Percent, CCRF-CEM: 66.81%
HL-60(TB)
  Growth Percent, HL-60(TB): 78.84%
K-562
  Growth Percent, K-562: 78.71%
SR
  Growth Percent, SR: 60.62%
NCI-H226
  Growth Percent, NCI-H226: 80.53%
NCI-H23
  Growth Percent, NCI-H23: 84.29%
NCI-H322M
  Growth Percent, NCI-H322M: 72.06%
NCI-H460
  Growth Percent, NCI-H460: 59.46%
NCI-H522
  Growth Percent, NCI-H522: 80.62%
COLO 205
  Growth Percent, COLO 205: 95.22%
HCC-2998
  Growth Percent, HCC-2998: 94.76%
HCT-116
  Growth Percent, HCT-116: 68.43%
HCT-15
  Growth Percent, HCT-15: 57.15%
KM12
  Growth Percent, KM12: 84.88%
SW-620
  Growth Percent, SW-620: 69.29%
SNB-19
  Growth Percent, SNB-19: 74.47%
U251
  Growth Percent, U251: 72.48%
LOX IMVI
  Growth Percent, LOX IMVI: 65.93%
MALME-3M
  Growth Percent, MALME-3M: 87.59%
M14
  Growth Percent, M14: 78.50%
SK-MEL-2
  Growth Percent, SK-MEL-2: 99.88%
SK-MEL-28
  Growth Percent, SK-MEL-28: 109.36%
SK-MEL-5
  Growth Percent, SK-MEL-5: 65.88%
UACC-257
  Growth Percent, UACC-257: 80.59%
UACC-62
  Growth Percent, UACC-62: 73.06%
IGROV1
  Growth Percent, IGROV1: 62.31%
OVCAR-4
  Growth Percent, OVCAR-4: 89.29%
OVCAR-8
  Growth Percent, OVCAR-8: 75.40%
NCI/ADR-RES
  Growth Percent, NCI/ADR-RES: 84.08%
786-0
  Growth Percent, 786-0: 92.44%
A498
  Growth Percent, A498: 73.67%
RXF 393
  Growth Percent, RXF 393: 46.50%
SN12C
  Growth Percent, SN12C: 74.93%
TK-10
  Growth Percent, TK-10: 58.78%
UO-31
  Growth Percent, UO-31: 45.79%
PC-3
  Growth Percent, PC-3: 93.92%
MCF7
  Growth Percent, MCF7: 64.78%
MDA-MB-231/ATCC
  Growth Percent, MDA-MB-231/ATCC: 94.00%
T-47D
  Growth Percent, T-47D: 73.06%
SVG p12
  Cell survival rate (%) SVG p12: 62 ± 1%
